Measured values reported in US7214712B2, “Isophthalic acid derivatives as matrix metalloproteinase inhibitors” (Warner-Lambert Company, priority 2001, dated 2007).

Assays:
[1] = biological target: T1, MMP-1FL (full length interstitial collagenase) (Homo sapiens, UniProt P03956); assay: Thiopeptolide substrate hydrolysis assay, MMP-1FL; type: biochemical; conditions: HEPES pH 7.0, 22° C.
T1 sequence (P03956 100-469): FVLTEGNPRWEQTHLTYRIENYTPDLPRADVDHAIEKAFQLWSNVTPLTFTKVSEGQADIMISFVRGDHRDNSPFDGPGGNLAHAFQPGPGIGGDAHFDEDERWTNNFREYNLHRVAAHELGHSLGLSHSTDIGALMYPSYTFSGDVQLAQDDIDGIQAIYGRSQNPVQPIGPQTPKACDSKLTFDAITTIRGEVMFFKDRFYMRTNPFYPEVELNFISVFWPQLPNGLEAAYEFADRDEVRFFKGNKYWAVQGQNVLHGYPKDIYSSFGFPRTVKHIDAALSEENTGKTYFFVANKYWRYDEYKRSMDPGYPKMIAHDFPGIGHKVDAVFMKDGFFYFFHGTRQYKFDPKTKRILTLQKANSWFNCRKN
Text: Several representative compounds have been evaluated for their ability to inhibit various matrix metalloproteinase enzymes.

[2] = biological target: MMP-3CD (catalytic domain of stromelysin-1) (Homo sapiens, UniProt P08254); assay: Thiopeptolide substrate hydrolysis assay, MMP-3CD; type: biochemical; conditions: 50 mM MES pH 6.0
Experimental: It should be appreciated that the assay buffer used with MMP-3CD was 50 mM N-morpholinoethanesulfonate (“MES”) at pH 6.0 rather than the HEPES buffer at pH 7.0 described above.

[3] = biological target: MMP-13CD (catalytic domain of collagenase-3) (Homo sapiens, UniProt P45452); assay: Thiopeptolide substrate hydrolysis assay, MMP-13CD; type: biochemical; conditions: HEPES pH 7.0, 22° C.
Experimental: The assays measure the amount by which a test compound reduces the hydrolysis of a thiopeptolide substrate caused by a matrix metalloproteinase enzyme.
Thiopeptolide substrates show virtually no decomposition or hydrolysis in the absence of a matrix metalloproteinase enzyme. A typical thiopeptolide substrate commonly utilized for assays is Ac-Pro-Leu-Gly-thioester-Leu-Leu-Gly-OEt. A 100-μL assay mixture will contain 50 mM of N-2-hydroxyethylpiperazine-N′-2-ethanesulfonic acid (“HEPES,” pH 7.0), 10 mM CaCl2, 100 μM thiopeptolide substrate, and 1 mM 5,5′-dithio-bis-(2-nitro-benzoic acid) (DTNB). […] Assays are carried out with and without matrix metalloproteinase inhibitor compounds, and the amount of hydrolysis is compared for a determination of inhibitory activity of the test compounds.

MMP-3CD (catalytic domain of stromelysin-1), sequence (P08254 100-272 limits assumed): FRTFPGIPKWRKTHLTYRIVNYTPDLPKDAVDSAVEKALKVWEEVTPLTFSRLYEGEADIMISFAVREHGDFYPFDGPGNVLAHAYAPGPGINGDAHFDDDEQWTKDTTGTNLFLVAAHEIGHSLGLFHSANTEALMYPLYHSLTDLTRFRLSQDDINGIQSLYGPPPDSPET

Compound	IC50 [1] [µM]	IC50 [2] [µM]	IC50 [3] [µM]	melting point [°C]
4-Methoxy-N,N′-bis-(4-methoxy-benzyl)-isophthalamide [Example 24]	> 100	> 100	0.28	–
O=C(OCc1ccc2nsnc2c1)c1cccc(C(=O)OCc2ccc3nsnc3c2)c1 [Example 3, Isophthalic acid di-(2,1,3-benzothiadiazol-5-yl)methyl ester]	> 100	> 30	–	–
COc1ccc(C(=O)OCc2ccncc2)cc1C(=O)OCc1ccncc1 [Example 5, 4-Methoxy-isophthalic acid dipyridin-4-ylmethyl ester]	> 100	> 100	0.255	–
O=C(NCc1ccc(Cl)cc1)c1cccc(C(=O)NCc2ccc(Cl)cc2)c1 [Example 10, N,N′-Bis-(4-chloro-benzyl)-isophthalamide]	–	–	–	136 to 138
O=C(OCc1cccc(F)c1)c1cccc(C(=O)OCc2cccc(F)c2)c1 [Example 11, Isophthalic acid bis-(3-fluoro-benzyl) ester]	–	–	–	81 to 82
COc1ccc(COC(=O)c2cccc(C(=O)OCc3ccc(OC)cc3)c2)cc1 [Example 12, Isophthalic acid bis-(4-methoxy-benzyl) ester]	–	–	–	90 to 92
COc1cccc(COC(=O)c2cccc(C(=O)OCc3cccc(OC)c3)c2)c1 [Example 13, Isophthalic acid bis-(3-methoxy-benzyl) ester]	–	–	–	68 to 70
O=C(OCc1ccc2c(c1)OCO2)c1cccc(C(=O)OCc2ccc3c(c2)OCO3)c1 [Example 14, Isophthalic acid bis-(1,3-benzodioxol-5-ylmethyl) ester]	–	–	–	109 to 110
COc1ccc(CNC(=O)c2cccc(C(=O)NCc3ccc(OC)cc3)c2)cc1 [Example 16, N,N′-Bis-(4-methoxy-benzyl)-isophthalamide]	–	–	–	175 to 176
O=C(NCc1cccc(F)c1)c1cccc(C(=O)NCc2cccc(F)c2)c1 [Example 17, N,N′-Bis-(3-fluoro-benzyl)-isophthalamide]	–	–	–	138 to 140
O=C(NCc1cccc(Cl)c1)c1cccc(C(=O)NCc2cccc(Cl)c2)c1 [Example 18, N,N′-Bis-(3-chloro-benzyl)-isophthalamide]	–	–	–	128 to 130
O=C(NCc1ccc2c(c1)OCO2)c1cccc(C(=O)NCc2ccc3c(c2)OCO3)c1 [Example 19, N,N′-Bis-1,3-benzodioxol-5-ylmethyl-isophthalamide]	> 100	–	–	–
O=C(NCc1ccc2c(c1)OCO2)c1cccc(C(=O)NCc2ccc3c(c2)OCO3)c1 [Example 28, N,N′-Bis-1,3-benzodioxol-5-ylmethyl-isophthalamide]	> 100	–	–	–
COc1cccc(CNC(=O)c2cccc(C(=O)NCc3cccc(OC)c3)c2)c1 [Example 30, N,N′-Bis-(3-methoxy-benzyl)-isophthalamide]	> 100	> 100	–	–
CCOc1ccc(C(=O)NCc2cccc(OC)c2)cc1C(=O)NCc1cccc(OC)c1 [Example 64, 4-Ethoxy-N′1,N″3-bis-(3-methoxy-benzyl)-isophthalamide]	> 100	> 100	–	–
COc1ccc(C(=O)OCc2ccc3nsnc3c2)cc1C(=O)OCc1ccc2nsnc2c1 [Example 69, 4-Methoxy-isophthalic acid di-2,1,3-benzothiadiazol-5-ylmethyl ester]	30	–	–	–
N,N′-Bis-(4-methoxy-benzyl)-isophthalamide [Example 39]	> 100	> 100	2.74	–
